From patent US6376710B2, “Amidine compounds and their use as pesticides” (Sumitomo Chemical Co., Ltd., priority 2000, dated 2002)
Where two headings read alike, the source gives them in different places.

Assays:
Type in all cases: in vivo
[1] = tested on: German cockroach (Blattella germanica); assay: Test Example 2: treated filter paper with sucrose bait, German cockroach male adults, mortality; conditions: 144 h
[2] = tested on: house fly (Musca domeestica); assay: Test Example 3: treated filter paper with sucrose bait, house fly female adults, mortality; conditions: 24 h
Description: On the bottom of a polyethylene cup of 5.5 cm in diameter was placed a filter paper of the same size, to which a water dilution (500 ppm) of each of the formulations obtained from present compounds 1, 2, 3, 4, 5, 6, 7, 8, 9, 10, 11, 12, 13, 14, 15, 16, 17, 18, 19, 20, 21, 25, 26, 27, 28, 29, 32, 33, 34, 35, 36, 37, 38, 39, 40, 41, 42, 43, 44, 45, 47, 51, 52, 53, 54, 55, 60, and 61 according to Formulation Example 1 was added dropwise in an amount of 0.7 ml, and the cup was uniformly charged with about 30 mg of sucrose as a bait. Ten female adults of house fly (Musca domeestica) were set free in each cup, which was then kept covered. After 1 day, their survival was examined to determine the mortality.

[3] = tested on: common mosquito (Culex pipiens pallens); assay: Test Example 4: treated water, common mosquito final-instar larvae, mortality; conditions: 192 h
[4] = water dilution (500 ppm) of flowable (Formulation Example 1), 0.7 ml on filter paper, male adults, after 6 days, read-out: mortality
[5] = active ingredient 3.5 ppm in ion-exchanged water (0.7 ml of 500 ppm dilution), final-instar larvae, after 8 days, read-out: mortality

## NC(=Nc1c(Cl)cc(C(F)(F)F)cc1[N+](=O)[O-])C(F)(F)F [present compound 1, N-(2-chloro-6-nitro-4-trifluoromethylphenyl)-2,2,2-trifluoroacetamidine]
[1]
  mortality at 500 µg/mL: 100%
[2]
  mortality at 500 µg/mL: 100%

## NC(=Nc1c(F)cc(C(F)(F)F)cc1F)C(F)(F)F [present compound 2, N-(2,6-Difluoro-4-trifluoromethylphenyl)-2,2,2-trifluoroacetamidine]
[1]
  mortality at 500 µg/mL: 100%
[2]
  mortality at 500 µg/mL: 100%

## NC(=Nc1c(Cl)cc(C(F)(F)F)cc1Cl)C(F)(F)F [present compound 3, N-(2,6-Dichloro-4-trifluoromethylphenyl)-2,2,2-trifluoroacetamidine]
[1]
  mortality at 500 µg/mL: 100%
[2]
  mortality at 500 µg/mL: 100%
[3]
  mortality at 3.5 ppm: 100%

## NC(=Nc1c(Cl)cc(C(F)(F)F)cc1Cl)C(F)(F)C(F)(F)F [present compound 4, N-(2,6-dichloro-4-trifluoromethylphenyl)-2,2,3,3,3-pentafluoropropionamidine]
[1]
  mortality at 500 µg/mL: 100%
[2]
  mortality at 500 µg/mL: 100%
[3]
  mortality at 3.5 ppm: 100%

## NC(=Nc1c(Cl)cc(C(F)(F)F)cc1Cl)C(F)(F)Cl [present compound 5, 2-Chloro-N-(2,6-dichloro-4-trifluoromethylphenyl)-2,2-difluoroacetamidine]
[1]
  mortality at 500 µg/mL: 100%
[2]
  mortality at 500 µg/mL: 100%
[3]
  mortality at 3.5 ppm: 100%

## NC(=Nc1c([N+](=O)[O-])cc(C(F)(F)F)cc1[N+](=O)[O-])C(F)(F)C(F)(F)F [present compound 6, N-(2,6-Dinitro-4-trifluoromethylphenyl)-2,2,3,3,3-pentafluoropropionamidine]
[1]
  mortality at 500 µg/mL: 100%
[2]
  mortality at 500 µg/mL: 100%
[3]
  mortality at 3.5 ppm: 100%

## NC(=Nc1c(Cl)cc(C(F)(F)F)cc1Cl)C(F)F [present compound 7, N-(2,6-Dichloro-4-trifluoromethylphenyl)-2,2-difluoroacetamidine]
[1]
  mortality at 500 µg/mL: 100%
[2]
  mortality at 500 µg/mL: 100%

## NC(=Nc1c(Cl)cc(C(F)(F)F)cc1[N+](=O)[O-])C(F)(F)C(F)(F)F [present compound 8, N-(2-Chloro-6-nitro-4-trifluoromethylphenyl)-2,2,3,3,3-pentafluoropropionamidine]
[1]
  mortality at 500 µg/mL: 100%
[2]
  mortality at 500 µg/mL: 100%
[3]
  mortality at 3.5 ppm: 100%

## NC(=Nc1c(F)cc(C(F)(F)F)cc1F)C(F)(F)C(F)(F)F [present compound 9, N-(2,6-Difluoro-4-trifluoromethylphenyl)-2,2,3,3,3-pentafluoropropionamidine]
[1]
  mortality at 500 µg/mL: 100%
[2]
  mortality at 500 µg/mL: 100%
[3]
  mortality at 3.5 ppm: 100%

## NC(=Nc1c(Cl)cc(C(F)(F)F)cc1Br)C(F)(F)C(F)(F)F [present compound 10, N-(2-Bromo-6-chloro-4-trifluoromethylphenyl)-2,2,3,3,3-pentafluoropropionamidine]
[1]
  mortality at 500 µg/mL: 100%
[2]
  mortality at 500 µg/mL: 100%
[3]
  mortality at 3.5 ppm: 100%

## NC(=Nc1c(Cl)cc(C(F)(F)F)cc1Cl)C(F)(F)C(F)(F)C(F)(F)F [present compound 11, N-(2,6-Dichloro-4-trifluoromethylphenyl)-2,2,3,3,4,4,4-heptafluorobutyramidine]
[1]; [4]
  mortality at 500 µg/mL: 100%
[2]; water dilution (500 ppm) of flowable (Formulation Example 1), 0.7 ml on filter paper, female adults, after 1 day, read-out: mortality
  mortality at 500 µg/mL: 100%
[3]; [5]
  mortality at 3.5 ppm: 100%

## NC(=Nc1c(Cl)cc(C(F)(F)F)cc1Cl)C(Cl)Cl [present compound 12, 2,2-Dichloro-N-(2,6-dichloro-4-trifluoromethylphenyl)acetamidine]
[1]
  mortality at 500 µg/mL: 100%
[2]
  mortality at 500 µg/mL: 100%
[3]
  mortality at 3.5 ppm: 100%

## NC(=Nc1c(F)cc(C(F)(F)F)cc1Cl)C(F)(F)F [present compound 13, N-(2-Chloro-6-fluoro-4-trifluoromethylphenyl)-2,2,2-trifluoroacetamidine]
[1]
  mortality at 500 µg/mL: 100%
[2]
  mortality at 500 µg/mL: 100%
[3]
  mortality at 3.5 ppm: 100%

## NC(=Nc1c(Cl)cc(C(F)(F)F)cc1Cl)C(F)(F)C(F)(F)C(F)(F)C(F)(F)F [present compound 30, N-(2,6-Dichloro-4-trifluoromethylphenyl)-2,2,3,3,4,4,5,5,5-nonafluoropentanamidine]
[1]; [4]
  mortality at 500 µg/mL: 100%
[3]; [5]
  mortality at 3.5 ppm: 100%

## NC(=Nc1c(Cl)cc(C(F)(F)F)cc1Cl)C(F)(F)C(F)(F)C(F)(F)C(F)(F)C(F)(F)F [present compound 31, N-(2,6-Dichloro-4-trifluoromethylphenyl)-2,2,3,3,4,4,5,5,6,6,6-undecafluorohexanamidine]
[3]; [5]
  mortality at 3.5 ppm: 100%

## NC(=Nc1c([N+](=O)[O-])cc(C(F)(F)F)cc1[N+](=O)[O-])C(F)(F)F [present compound 33, N-(2,6-Dinitro-4-trifluoromethylphenyl)-2,2,2-trifluoroacetamidine]
[1]
  mortality at 500 µg/mL: 100%
[2]
  mortality at 500 µg/mL: 100%

## NC(=Nc1c([N+](=O)[O-])cc(C(F)(F)C(F)(F)C(F)(F)F)cc1[N+](=O)[O-])C(F)(F)C(F)(F)C(F)(F)F [present compound 48, N-(2,6-Dinitro-4-heptafluoropropylphenyl)-2,2,3,3,4,4,4-heptafluorobutyramidine]
[3]
  mortality at 3.5 ppm: 100%

## NC(=Nc1c([N+](=O)[O-])cc(C(F)(F)C(F)(F)C(F)(F)F)cc1[N+](=O)[O-])C(F)(F)F [present compound 49, N-(2,6-Dinitro-4-heptafluoropropylphenyl)-2,2,2-trifluoroacetamidine]
[1]
  mortality at 500 µg/mL: 100%
[3]
  mortality at 3.5 ppm: 100%

## NC(=Nc1c([N+](=O)[O-])cc(C(F)(C(F)(F)F)C(F)(F)F)cc1[N+](=O)[O-])C(F)(F)C(F)(F)C(F)(F)F [present compound 50, N-{2,6-Dinitro-4-(1,2,2,2-tetrafluoro-1-trifluoromethylethyl)phenyl}-2,2,3,3,4,4,4-heptafluorobutyramidine]
[1]
  mortality at 500 µg/mL: 100%
[3]
  mortality at 3.5 ppm: 100%

## CN(C)C(=Nc1c(Cl)cc(C(F)(F)F)cc1Cl)C(F)(F)F [present compound 52, N′-(2,6-dichloro-4-trifluoromethylphenyl)-2,2,2-trifluoro-N,N-dimethylacetamidine]
[1]
  mortality at 500 µg/mL: 100%
[2]
  mortality at 500 µg/mL: 100%

## CCCN(CCC)C(=Nc1c(Cl)cc(C(F)(F)F)cc1Cl)C(F)(F)F [present compound 56, N′-(2,6-dichloro-4-trifluoromethylphenyl)-2,2,2-trifluoro-N,N-dipropylacetamidine]
[1]
  mortality at 500 µg/mL: 100%

## CCN(CC)C(=Nc1c(Cl)cc(C(F)(F)F)cc1Cl)C(F)(F)F [present compound 57, N′-(2,6-Dichloro-4-trifluoromethylphenyl)-N,N-diethyl-2,2,2-trifluoroacetamidine]
[1]
  mortality at 500 µg/mL: 100%
[3]
  mortality at 3.5 ppm: 100%

## CCNC(=Nc1c(Cl)cc(C(F)(F)F)cc1Cl)C(Cl)Cl [present compound 58, N′-(2,6-Dichloro-4-trifluoromethylphenyl)-2,2-dichloro-N-ethylacetamidine]
[1]
  mortality at 500 µg/mL: 100%
[3]
  mortality at 3.5 ppm: 100%

## CCNC(=Nc1c([N+](=O)[O-])cc(C(F)(F)F)cc1[N+](=O)[O-])C(Cl)Cl [present compound 59, 2,2-Dichloro-N′-(2,6-dinitro-4-trifluoromethylphenyl)-N-ethylacetamidine]
[1]
  mortality at 500 µg/mL: 100%
[3]
  mortality at 3.5 ppm: 100%
